Measured values: patent US4336375A, “Cephalosporanic acid derivatives” (American Cyanamid Company, priority 1980, dated 1982)
In brackets after ≈: the same amount, converted by molar mass. Like-named read-outs stand apart in the source and are kept apart here.

Assays:
[1] = test system: Pseudomonas aeruginosa G236; experiment: In vitro MIC, agar dilution, Pseudomonas aeruginosa G236; format: cell-based; conditions: read-out: Minimal Inhibitory Concentration
Protocol: (§1) The in vitro activity of representative compounds of the present invention are given in the following Table I in terms of minimal inhibitory concentration. The test used was the standard agar dilution test using a Steers multiple inocula replicator and incubating at 35° C. for 18 hours in conventional nutrient agar.

[2] = test system: Pseudomonas aeruginosa PD05141; experiment: In vitro MIC, agar dilution, Pseudomonas aeruginosa PD05141; format: cell-based; conditions: read-out: Minimal Inhibitory Concentration
Protocol: as §1

[3] = test system: Pseudomonas aeruginosa 12-4-4; experiment: In vitro MIC, agar dilution, Pseudomonas aeruginosa 12-4-4; format: cell-based; conditions: 1244; Pseudomonas aeruginosa 12-4-4; agar dilution, 35° C., 18 hours, nutrient agar; read-out: Minimal Inhibitory Concentration
Protocol: as §1

[4] = test system: Pseudomonas aeruginosa UCS 76-13; experiment: In vitro MIC, agar dilution, Pseudomonas aeruginosa UCS 76-13; format: cell-based; conditions: UCS7613; Pseudomonas aeruginosa UCS 76-13; agar dilution, 35° C., 18 hours, nutrient agar; read-out: Minimal Inhibitory Concentration
Protocol: as §1

[5] = test system: Klebsiella pneumoniae MA75-1; experiment: In vitro MIC, agar dilution, Klebsiella pneumoniae MA75-1; format: cell-based; conditions: MA751; Klebsiella pneumoniae MA75-1; agar dilution, 35° C., 18 hours, nutrient agar; read-out: Minimal Inhibitory Concentration
Protocol: as §1

[6] = test system: Klebsiella pneumoniae W75-2; experiment: In vitro MIC, agar dilution, Klebsiella pneumoniae W75-2; format: cell-based; conditions: W752; Klebsiella pneumoniae W75-2; agar dilution, 35° C., 18 hours, nutrient agar; read-out: Minimal Inhibitory Concentration
Protocol: as §1

[7] = test system: Klebsiella pneumoniae W75-4; experiment: In vitro MIC, agar dilution, Klebsiella pneumoniae W75-4; format: cell-based; conditions: W754; Klebsiella pneumoniae W75-4; agar dilution, 35° C., 18 hours, nutrient agar; read-out: Minimal Inhibitory Concentration
Protocol: as §1

[8] = test system: Klebsiella pneumoniae UR76-1; experiment: In vitro MIC, agar dilution, Klebsiella pneumoniae UR76-1; format: cell-based; conditions: UR761; Klebsiella pneumoniae UR76-1; agar dilution, 35° C., 18 hours, nutrient agar; read-out: Minimal Inhibitory Concentration
Protocol: as §1

Klebsiella pneumoniae AD = experiment: In vitro MIC, agar dilution, Klebsiella pneumoniae AD; format: cell-based; conditions: Klebsiella pneumoniae AD; agar dilution, 35° C., 18 hours, nutrient agar; read-out: Minimal Inhibitory Concentration
Protocol: as §1

[9] = test system: Enterobacter aerogenes UR76-3; experiment: In vitro MIC, agar dilution, Enterobacter aerogenes UR76-3; format: cell-based; conditions: Klebsiella aerogenes, UR763; Enterobacter aerogenes UR76-3; agar dilution, 35° C., 18 hours, nutrient agar; read-out: Minimal Inhibitory Concentration
Protocol: as §1

[10] = test system: Enterobacter cloacae MA75-1; experiment: In vitro MIC, agar dilution, Enterobacter cloacae MA75-1; format: cell-based; conditions: MA751; Enterobacter cloacae MA75-1; agar dilution, 35° C., 18 hours, nutrient agar; read-out: Minimal Inhibitory Concentration
Protocol: as §1

[11] = test system: Enterobacter cloacae OSU75-2; experiment: In vitro MIC, agar dilution, Enterobacter cloacae OSU75-2; format: cell-based; conditions: OSU752; Enterobacter cloacae OSU75-2; agar dilution, 35° C., 18 hours, nutrient agar; read-out: Minimal Inhibitory Concentration
Protocol: as §1

Serratia K101 = experiment: In vitro MIC, agar dilution, Serratia K101; format: cell-based; conditions: Serratia K101; agar dilution, 35° C., 18 hours, nutrient agar; read-out: Minimal Inhibitory Concentration
Protocol: as §1

Serratia marcens K77-1 = experiment: In vitro MIC, agar dilution, Serratia marcens K77-1; format: cell-based; conditions: K771; Serratia marcens K77-1; agar dilution, 35° C., 18 hours, nutrient agar; read-out: Minimal Inhibitory Concentration
Protocol: as §1

Serratia marcens QHC77-2 = experiment: In vitro MIC, agar dilution, Serratia marcens QHC77-2; format: cell-based; conditions: QHC772; Serratia marcens QHC77-2; agar dilution, 35° C., 18 hours, nutrient agar; read-out: Minimal Inhibitory Concentration
Protocol: as §1

Proteus vulgaris N74-1 = experiment: In vitro MIC, agar dilution, Proteus vulgaris N74-1; format: cell-based; conditions: N741, 35° C., 18 hours, nutrient agar, read-out: Minimal Inhibitory Concentration
Protocol: as §1

Proteus morganii K72 = experiment: In vitro MIC, agar dilution, Proteus morganii K72; format: cell-based; conditions: Morganella morganii; Proteus morganii K72; agar dilution, 35° C., 18 hours, nutrient agar; read-out: Minimal Inhibitory Concentration
Protocol: as §1

Proteus rettgeri N76-1 = experiment: In vitro MIC, agar dilution, Proteus rettgeri N76-1; format: cell-based; conditions: Providencia rettgeri, N761; Proteus rettgeri N76-1; agar dilution, 35° C., 18 hours, nutrient agar; read-out: Minimal Inhibitory Concentration
Protocol: as §1

[12] = test system: Escherichia coli ESS22-31; experiment: In vitro MIC, agar dilution, Escherichia coli ESS22-31; format: cell-based; conditions: ESS2231; Escherichia coli ESS22-31; agar dilution, 35° C., 18 hours, nutrient agar; read-out: Minimal Inhibitory Concentration
Protocol: as §1

Escherichia coli W75-1 = experiment: In vitro MIC, agar dilution, Escherichia coli W75-1; format: cell-based; conditions: W751, 35° C., 18 hours, nutrient agar, read-out: Minimal Inhibitory Concentration
Protocol: as §1

Escherichia coli OSU75-1 = experiment: In vitro MIC, agar dilution, Escherichia coli OSU75-1; format: cell-based; conditions: OSU751, 35° C., 18 hours, nutrient agar, read-out: Minimal Inhibitory Concentration
Protocol: as §1

Escherichia coli 311 [13] = experiment: In vitro MIC, agar dilution, Escherichia coli 311; format: cell-based; conditions: 35° C., 18 hours, nutrient agar, read-out: Minimal Inhibitory Concentration
Protocol: as §1

[14] = test system: Staphylococcus aureus Q74-1; experiment: In vitro MIC, agar dilution, Staphylococcus aureus Q74-1; format: cell-based; conditions: Q741; Staphylococcus aureus Q74-1; agar dilution, 35° C., 18 hours, nutrient agar; read-out: Minimal Inhibitory Concentration
Protocol: as §1

[15] = test system: Staphylococcus aureus Q74-6; experiment: In vitro MIC, agar dilution, Staphylococcus aureus Q74-6; format: cell-based; conditions: Q746; Staphylococcus aureus Q74-6; agar dilution, 35° C., 18 hours, nutrient agar; read-out: Minimal Inhibitory Concentration
Protocol: as §1

Enterococcus SM77-15 = experiment: In vitro MIC, agar dilution, Enterococcus SM77-15; format: cell-based; conditions: SM7715; Enterococcus SM77-15; agar dilution, 35° C., 18 hours, nutrient agar; read-out: Minimal Inhibitory Concentration
Protocol: as §1

Escherichia coli 311 [16] = experiment: In vivo systemic lethal infection of mice, Escherichia coli 311; set-up: species or system Charles River CD-1 mice; conditions: CD-1 mice
Excerpt: (§2) As shown in Table II these compounds show high in vivo antibacterial activity against Escherichia coli 311 and Klebsiella pneumoniae W-75-2 when administered by a single subcutaneous dose to groups of Charles River CD-1 mice, weighing about 20 g. each. The mice are infected intraperitoneally with a lethal dose of these bacteria.

[17] = test system: Klebsiella pneumoniae W-75-2; experiment: In vivo systemic lethal infection of mice, Klebsiella pneumoniae W-75-2; set-up: species or system Charles River CD-1 mice; conditions: CD-1 mice
Excerpt: as §2

[18] = single subcutaneous dose 1 mg./kg.
[19] = single subcutaneous dose 2 mg./kg.
[20] = single subcutaneous dose 4 mg./kg.
[21] = single subcutaneous dose 8 mg./kg.
[22] = single subcutaneous dose 0.12 mg./kg.
[23] = single subcutaneous dose 0.25 mg./kg.
[24] = single subcutaneous dose 0.5 mg./kg.

Structure (SMILES)	MIC [3] [µg/mL]	MIC [4] [µg/mL]	MIC [5] [µg/mL]	MIC [6] [µg/mL]	MIC [7] [µg/mL]	MIC [8] [µg/mL]	MIC (Klebsiella pneumoniae AD) [µg/mL]	MIC [9] [µg/mL]	MIC [10] [µg/mL]	MIC [11] [µg/mL]	MIC (Serratia K101) [µg/mL]	MIC (Serratia marcens K77-1) [µg/mL]	MIC (Serratia marcens QHC77-2) [µg/mL]	MIC (Proteus vulgaris N74-1) [µg/mL]	MIC (Proteus morganii K72) [µg/mL]	MIC (Proteus rettgeri N76-1) [µg/mL]	MIC [12] [µg/mL]	MIC (Escherichia coli W75-1) [µg/mL]	MIC (Escherichia coli OSU75-1) [µg/mL]	MIC (Escherichia coli 311 [13]) [µg/mL]	other results
CO/N=C(\C(=O)NC1C(=O)N2C(C(=O)O)=C(CSc3nnc(-n4nc(C)cc4-c4ccccc4)n3N)CSC12)c1csc(N)n1 (stereo not drawn) [Compound III, 7-[2-(Syn-methoxyimino)-2-(2-aminothiazol-4-yl)acetamido]-3-[4-amino-5-(1-[3-methyl-5-phenyl]pyrazolyl)-1,2,4-triazol-3-ylthiomethyl]-3-cephem-4-carboxylic acid]	128 (≈ 192 µM)	> 128	0.5 (≈ 0.749 µM)	1 (≈ 1.5 µM)	1 (≈ 1.5 µM)	4 (≈ 5.99 µM)	0.5 (≈ 0.749 µM)	0.25 (≈ 0.374 µM)	128 (≈ 192 µM)	4 (≈ 5.99 µM)	4 (≈ 5.99 µM)	4 (≈ 5.99 µM)	8 (≈ 12 µM)	1 (≈ 1.5 µM)	2 (≈ 3 µM)	1 (≈ 1.5 µM)	≤ 0.12	1 (≈ 1.5 µM)	1 (≈ 1.5 µM)	0.25 (≈ 0.374 µM)	MIC ([1]; Pseudomonas aeruginosa, G236, 18 h): > 128 µg/mL; MIC ([2]; Pseudomonas aeruginosa PD05141, agar dilution, 35° C., 18 hours, nutrient agar): > 128 µg/mL; MIC [14]: 2 µg/mL (≈ 3 µM); MIC [15]: 32 µg/mL (≈ 47.9 µM); MIC (Enterococcus SM77-15): > 128 µg/mL; Alive/Total Mice Tested, 7 Days After Infection (Escherichia coli 311 [16]; [18]): 0/5; Alive/Total Mice Tested, 7 Days After Infection (Escherichia coli 311 [16]; [19]): 0/5; Alive/Total Mice Tested, 7 Days After Infection (Escherichia coli 311 [16]; [20]): 5/5; Alive/Total Mice Tested, 7 Days After Infection (Escherichia coli 311 [16]; [21]): 5/5
CO/N=C(\C(=O)NC1C(=O)N2C(C(=O)O)=C(CSc3nnc(-n4cccn4)n3N)CSC12)c1csc(N)n1 (stereo not drawn) [Compound I, 7-[2-(Syn-methoxyimino)-2-(2-aminothiazol-4-yl)acetamido]-3-[4-amino-5-(1-pyrazolyl)-1,2,4-triazol-3-ylthiomethyl]-3-cephem-4-carboxylic acid]	64 (≈ 111 µM)	128 (≈ 222 µM)	≤ 0.12	≤ 0.12	≤ 0.12	0.5 (≈ 0.866 µM)	≤ 0.12	≤ 0.12	128 (≈ 222 µM)	0.5 (≈ 0.866 µM)	0.5 (≈ 0.866 µM)	0.5 (≈ 0.866 µM)	1 (≈ 1.73 µM)	≤ 0.12	≤ 0.12	≤ 0.12	≤ 0.12	≤ 0.12	≤ 0.12	≤ 0.12	MIC ([1]; Pseudomonas aeruginosa G236, agar dilution, 35° C., 18 hours, nutrient agar): 64 µg/mL (≈ 111 µM); MIC ([2]; Pseudomonas aeruginosa, PD05141, 18 h): 128 µg/mL (≈ 222 µM); MIC [14]: 2 µg/mL (≈ 3.46 µM); MIC [15]: 64 µg/mL (≈ 111 µM); MIC (Enterococcus SM77-15): > 128 µg/mL; Alive/Total Mice Tested, 7 Days After Infection (Escherichia coli 311 [16]; [22]): 1/20; Alive/Total Mice Tested, 7 Days After Infection (Escherichia coli 311 [16]; [23]): 6/20; Alive/Total Mice Tested, 7 Days After Infection (Escherichia coli 311 [16]; [24]): 15/20; Alive/Total Mice Tested, 7 Days After Infection (Escherichia coli 311 [16]; [18]): 19/20; Alive/Total Mice Tested, 7 Days After Infection ([17]; single subcutaneous dose 0.06 mg./kg.): 1/20; Alive/Total Mice Tested, 7 Days After Infection [17, 22]: 2/20; Alive/Total Mice Tested, 7 Days After Infection [17, 23]: 14/20; Alive/Total Mice Tested, 7 Days After Infection [17, 24]: 19/20
Cn1nnnc1SCC1=C(C(=O)O)N2C(=O)[C@@H](NC(=O)[C@H](O)c3ccccc3)[C@H]2SC1 [Cefamandol]	–	–	–	–	–	–	–	–	–	–	–	–	–	–	–	–	–	–	–	–	Alive/Total Mice Tested, 7 Days After Infection (Escherichia coli 311 [16]; [20]): 6/20; Alive/Total Mice Tested, 7 Days After Infection (Escherichia coli 311 [16]; [21]): 11/20; Alive/Total Mice Tested, 7 Days After Infection (Escherichia coli 311 [16]; single subcutaneous dose 16 mg./kg.): 20/20; Alive/Total Mice Tested, 7 Days After Infection (Escherichia coli 311 [16]; single subcutaneous dose 32 mg./kg.): 20/20; Alive/Total Mice Tested, 7 Days After Infection [17, 24]: 0/20; Alive/Total Mice Tested, 7 Days After Infection [17, 18]: 1/20; Alive/Total Mice Tested, 7 Days After Infection [17, 19]: 7/20; Alive/Total Mice Tested, 7 Days After Infection [17, 20]: 19/20; Alive/Total Mice Tested, 7 Days After Infection [17, 21]: 20/20
